Measurements as given in US10988523B2, “Modified lipidated Relaxin B chain peptides and their therapeutic use” (Sanofi, priority 2018, dated 2021).
Where two headings read alike, the source gives them in different places. Marks after values point to notes of the source that are not given here. Values belong to the molecule of their own block, whether it stands above or below them. *1 amine or outer side, *2 acyl side, *3 side chain or, on linkers, in order; H or OH if unused. Where a SMILES comes first, the peptide text is derived from it. Side-chain parts run from the residue outwards. [ ]: non-standard residue; d: D form. The star is where a group is joined. γGlu = O=C(O)[C@H](CCC(=O)[*:2])N[*:1]; Palmitoyl = CCCCCCCCCCCCCCCC(=O)*; αMeK = C[C@](N)(CCCCN)C(=O)O; Nle = CCCC[C@H](N)C(=O)O; AEEA = NCCOCCOCC(=O)O; Aib = CC(C)(N)C(=O)O

Key:
RXFP1 = molecular target: T1, RXFP1 (Homo sapiens, UniProt Q9HBX9); experiment: OVCAR5 cAMP assay (HTRF), RXFP1 agonist activity; format: cell-based; details: for Emax: OVCAR-5
T1 construct: OVCAR5 cells expressing endogenous RXFP1; endogenous in cells; host or cells: OVCAR5 cells
T1 sequence (Q9HBX9 1-757): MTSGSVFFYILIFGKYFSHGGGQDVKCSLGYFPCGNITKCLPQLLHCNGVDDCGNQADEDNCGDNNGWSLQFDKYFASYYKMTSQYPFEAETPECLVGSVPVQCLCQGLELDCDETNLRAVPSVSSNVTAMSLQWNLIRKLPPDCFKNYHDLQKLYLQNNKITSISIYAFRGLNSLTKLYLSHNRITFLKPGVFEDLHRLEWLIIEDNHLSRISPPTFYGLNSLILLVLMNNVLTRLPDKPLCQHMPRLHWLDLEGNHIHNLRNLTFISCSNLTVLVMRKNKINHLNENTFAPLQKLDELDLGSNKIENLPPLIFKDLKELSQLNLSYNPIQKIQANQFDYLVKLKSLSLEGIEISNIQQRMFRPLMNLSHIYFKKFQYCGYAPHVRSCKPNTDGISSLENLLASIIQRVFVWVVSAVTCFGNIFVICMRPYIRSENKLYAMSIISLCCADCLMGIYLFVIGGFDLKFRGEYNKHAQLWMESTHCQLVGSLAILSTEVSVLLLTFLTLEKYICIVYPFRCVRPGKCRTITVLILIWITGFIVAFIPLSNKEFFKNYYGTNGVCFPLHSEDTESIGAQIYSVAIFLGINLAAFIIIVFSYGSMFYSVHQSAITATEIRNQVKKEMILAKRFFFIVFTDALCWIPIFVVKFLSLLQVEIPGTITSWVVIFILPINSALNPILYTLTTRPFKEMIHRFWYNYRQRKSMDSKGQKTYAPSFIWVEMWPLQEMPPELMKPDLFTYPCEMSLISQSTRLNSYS
Summary of the method: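 cAMP accumulation readout: after 1 mM IBMX for 40 min, endogenous-RXFP1 OVCAR5 cells got rising peptide concentrations without FCS, 30 min, 37° C, then lysis with HTRF cAMP reagents. Nonlinear regression gave EC50; Emax expressed relative to H2-relaxin maximum, same occasion.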

[1] = Solubility testing of peptides in buffer; format: physicochemical; details: for Solubility Acetate buffer pH 4.5: acetate buffer 50 mM pH 4.5; for Solubility phosphate buffer pH 7.4: phosphate buffer 50 mM pH 7.4
Experimental: Prior to the testing of solubility of a peptide batch, its purity (HPLC-UV) was determined.
Acetate Buffer 50 mM pH4.5: 0.75 g […], 3H2O (Sigma 57545)+0.35 ml CH3CO2H 100% solution dissolved in Millipore water, adjusted to pH with diluted (1:1) CH3CO2H and diluted to 250 ml with Millipore water.
In a 4 ml Ependorph vial, an accurately weighed sample of compound was diluted in study media to obtain target concentration of 2, 6 or 10 mg/ml of pure compound. The sample vials were shacked (rock 'roll shaker) for ˜19 h. 3004, Aliquots ( ) were filtered through a Millipore “Solvinert” plate (0.45 μm—PTFE hydrophilic).
pH was measured with a micro electrode
Waters Acquity UPLC System with DAD detector
Column: Waters Peptide Column CSH C18 (130 Å; 1.7 μm; 50*2.1 mm)
Column temperature: 60° C.
Full loop (about 5 μL)—overfill factor 5
Weak et Strong wash: H2O/ACN (75/25; V/V); Seal wash: H2O/IsOH (95/5; V/V). Mobile phase:
Solvent A: 0.05% TFA in H2O; Solvent B: 0.035% TFA in CH3CN
Gradient: from 0 to 12 min B=2% to 60%, from 12 to 14 min B=60% to 100%. Column washing 100% B 1 min, column equilibration 2% B 2.5 min.
UV detector: wavelength: 220 nm.

[2] = Stability testing of peptides in human plasma or blood; format: in vitro ADME; details: 37° C.; for Human Plasma stability % remaining T = 0: human plasma or blood, T = 0 (reference)
Summary of the method: (§1)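 Peptide at 5 µM final was incubated at 37 °C in heparinized rat or human plasma or blood, sampled up to 4 h, and extracted with acetonitrile/1% TFA. HPLC peak areas relative to t0 give % remaining peptide.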

[3] = Stability testing of peptides in rat plasma or blood; format: in vitro ADME; details: 37° C.; for Rat plasma stability % remaining T = 0: rat plasma or blood, T = 0 (reference)
Summary of the method: as §1

[4] = Pharmacokinetic (PK) determination after i.v. or s.c. administration to rats; format: in vivo, Sprague Dawley rats; details: Rat PK
Summary of the method: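 Non-compartmental analysis of plasma LC/MS data (protein precipitation, BLQ taken as zero) gave T½, C0 (i.v.), Cmax/Tmax (s.c.) and F% from dose-corrected AUCs. Dosing: 3 mg/kg s.c. or 1 mg/kg i.v. in PBS to Sprague Dawley rats, purity- and salt-corrected.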

Emax (RXFP1; maximal cAMP relative to H2-relaxin maximum (100%), read-out: EMax, OVCAR 5 cells (cAMP)): 92% | Solubility Acetate buffer pH 4.5 ([1]; target solubility 10.0 mg/ml): >10 mg/ml**** | Solubility phosphate buffer pH 7.4 ([1]; target solubility 10.0 mg/ml): >10 mg/ml**** | Human stability in blood % remaining 1 h ([2]; human blood, 1 h, 5 μM): 91** % | Human stability in blood % remaining 4 h ([2]; human blood, 4 h, 5 μM): 96** % | Human Plasma stability % remaining T = 0 ([2]; 5 μM): 100% | Rat stability in blood % remaining 1 h ([3]; rat blood, 1 h, 5 μM): 99** % | Rat stability in blood % remaining 4 h ([3]; rat blood, 4 h, 5 μM): 95** % | Rat plasma stability % remaining T = 0 ([3]; 5 μM): 100% | T½ ([4]; 1 mg/kg i.v.): 5.00 h | C0 ([4]; 1 mg/kg i.v., extrapolated plasma concentration at t=0, read-out: C0): 4.52 µM | Cmax ([4]; 3 mg/kg s.c.): 1.89 µM | Tmax (-h) ([4]; 3 mg/kg s.c.): 8.0 h | F % ([4]; 3 mg/kg s.c. vs 1 mg/kg i.v., dose-corrected AUC ratio): 72%
Molecule: CCCCCCCCCCCCCCCC(=O)N[C@@H](CCC(=O)N[C@@H](CCC(=O)N[C@@H](CCC(=O)N[C@@H](CCC(=O)NCCOCCOCC(=O)NCCOCCOCC(=O)NCCOCCOCC(=O)NCCOCCOCC(=O)NCCCC[C@H](NC(=O)[C@H](CCCCNC(C)=O)NC(=O)[C@H](C)NC(=O)[C@H](CCCNC(=N)N)NC(=O)[C@](C)(CCCCN)NC(=O)[C@H](CO)NC(=O)[C@H](Cc1ccccc1)NC(=O)[C@@H](NC(=O)[C@H](CO)NC(=O)[C@H](CCCC)NC(=O)CNC(=O)[C@H](CCC(=O)O)NC(=O)C(C)(C)NC(=O)C(C)(C)NC(=O)[C@@H](NC(=O)[C@H](CCCCNC(C)=O)NC(=O)[C@H](C)NC(=O)[C@H](CCCNC(=N)N)NC(=O)[C@@H](NC(=O)[C@H](CCCCN)NC(=O)[C@H](CCC(=O)O)NC(=O)[C@H](CCCNC(=N)N)NC(=O)CNC(=O)[C@H](CCC(=O)O)NC(=O)[C@H](CC(C)C)NC(C)=O)C(C)C)[C@@H](C)CC)[C@@H](C)O)C(N)=O)C(=O)O)C(=O)O)C(=O)O)C(=O)O [compound 154] (Ac-LEGREKVRAK(Ac)I[Aib][Aib]EG[Nle]STFS[αMeK]RAK(Ac)K([AEEA-AEEA-AEEA-AEEA-γGlu-γGlu-γGlu-γGlu-Palmitoyl])-NH2)

EC50 (RXFP1; OVCAR5 cells expressing endogenous RXFP1, cAMP readout, 30 min, 1 mM IBMX, read-out: EC50 cAMP assay in OVCAR 5 cells): 1.64 µM | Emax (RXFP1; maximal cAMP relative to H2-relaxin maximal cAMP x 100, read-out: Emax cAMP assay in OVCAR 5 cells): 90% | Solubility Acetate buffer pH 4.5 ([1]; target solubility 2.0 mg/ml): 1.9 mg/ml | Solubility phosphate buffer pH 7.4 ([1]; target solubility 2.0 mg/ml): 0.014 mg/ml | Human Plasma stability % remaining T = 0 ([2]; 5 μM): 100% | remaining at 1 h, 5 µM ([2]; human plasma, 1 h, read-out: Human Plasma stability % remaining 1 h): 18% | remaining at 4 h, 5 µM ([2]; human plasma, 4 h, read-out: Human Plasma stability % remaining 4 h): 3% | Rat plasma stability % remaining T = 0 ([3]; 5 μM): 100% | remaining at 1 h, 5 µM ([3]; rat plasma, 1 h, read-out: Rat plasma stability % remaining 1 h): 15% | remaining at 4 h, 5 µM ([3]; rat plasma, 4 h, read-out: Rat plasma stability % remaining 4 h): 2%
Molecule: H-VIKLSGRELVRAQIAISGMSTWSKRSL-NH2 [B7-33 C11.23S, reference compound]
